Measurements published in paper PMC6478823, “A suite of phenotypic assays to ensure pipeline diversity when prioritizing drug-like Cryptosporidium growth inhibitors” (Nature Communications, 2019).

Columns and labels:
C. parvum = assay: DNA replication assay (EdU incorporation); format: cell-based, Cryptosporidium parvum; conditions: compound at EC90; for DNA Synthesis Assay: Mean % Inhibition of EdU-labeling (normalized to parasite numbers), Average: average of replicates; for DNA Synthesis Assay: Mean % Inhibition of EdU-labeling (normalized to parasite numbers), Replicate 1: single replicate 1; for DNA Synthesis Assay: Mean % Inhibition of EdU-labeling (normalized to parasite numbers), Replicate 2: single replicate 2; for DNA Synthesis Assay: Mean % Inhibition of EdU-labeling (normalized to parasite numbers), Replicate 3: single replicate 3; for DNA synthesis: yes/no grouping by phenotypic assay result
Excerpt: Following cell invasion, Cryptosporidium trophozoites grow and multiply to give rise to multinucleated type I meronts (Fig. 3a). The thymidine analog 5-ethynyl-2′-deoxyuridine (EdU) is efficiently incorporated into newly synthesized DNA, and can be detected using click chemistry. We used EdU to measure parasite intracellular DNA replication, as a surrogate for the more complex phenotype of intracellular growth and division. The approach for differentially labeling newly synthesized parasite DNA compared to host cell DNA was to take advantage of the fact that C. parvum replicates more quickly than the nearly confluent host cells. Thus, by adding EdU shortly before egress, it was possible to preferentially label replicating parasites (Fig. 3b, c). DNA staining with Hoechst labeled all of the host and parasite DNA, making it challenging to visualize and quantify parasite DNA. A simple DNA stain would also not distinguish pre-existing DNA from newly synthesized DNA (Fig. 3c). In contrast, EdU labeling only occurred with incorporation into newly synthesized DNA. Incorporated EdU was then easily stained for immunofluorescence and labeled parasites were quantified using high-content microscopy and an NIH ImageJ macro (Fig. 3c, DMSO condition). The […] hydroxyurea (10 mM), a known inhibitor of DNA replication, was used as a positive control for assay validation. […] Compounds with activity in this assay cannot be concluded to specifically target DNA replication, which is a complex phenotype.
Confluent HCT-8 cell monolayers in glass bottom plates were infected with C. parvum, and compounds were added at EC90 following invasion. At 9 h post-infection, 10 µM EdU was added, followed by incubation for another 2 h, and then washing, fixing, and staining for microscopy. […] 40 × dry objective (NA = 0.7); scale = 5 µm. Arrows indicate selected parasites with EdU-labeled DNA. d Quantification of EdU incorporation. […] Data are mean and SD of 2–5 biological replicates.
After incubation of cells with EdU for 2 h, cells were washed 3 times with PBS-D-gal and then fixed with PBS containing 4% PFA. Cells were then permeabilized and stained for EdU using the Click-iT® assay kit (Thermo Fisher Scientific, catalog# C10340) as per the manufacturer’s instructions. Cells were then imaged by focusing on parasites (note that the host cell nuclei are in a different focal plane) using a 40 × dry objective (0.7 NA) and EdU, and lectin numbers quantified using ImageJ software and the custom macro in Supplementary Method 1.

[1] = tested on: C. parvum DMC1 expression; assay: Sexual differentiation assay (DMC1 expression); format: cell-based, Cryptosporidium parvum; conditions: compound at asexual EC90, 48-72 h; for Asexual to sexual differentiation: Mean % DMC1 inhibition (normalized to host nuclei), Average: average of replicates; for Asexual to sexual differentiation: Mean % DMC1 inhibition (normalized to host nuclei), Replicate 1a: single replicate 1; for Asexual to sexual differentiation: Mean % DMC1 inhibition (normalized to host nuclei), Replicate 2a: single replicate 2; for Asexual to sexual differentiation: Mean % DMC1 inhibition (normalized to host nuclei), Replicate 3a: single replicate 3; for Asexual to sexual differentiation: Mean % DMC1 inhibition (normalized to host nuclei), Replicate 4a: single replicate 4
Excerpt: We utilized DMC1 as a marker of C. parvum sexual development, and used the anti-DMC1 monoclonal antibody to develop a moderate-throughput high-content microscopy assay for characterizing anticryptosporidial compounds (Fig. 6a). […] Therefore, in order to enable numerical comparison of the ability of compounds to block sexual development with moderate throughput, we adopted a strategy of reporting the percent inhibition of DMC1 expression by the previously determined EC90 of each compound in the standard asexual development assay (Fig. 6c and Supplementary Table 2).
Fig. 6 Assay to measure asexual-to-sexual-stage conversion. a Schematic of the experimental approach. […] For b and c the mean and SD combined from at least two biological replicates with four technical replicates per experiment are shown. […] At given time points post-infection, infected cells were washed 3 times with PBS containing 111 mM of D-galactose, fixed for 15 min at room temperature with 4% paraformaldehyde in PBS, and permeabilized with 0.25% triton X-100 in PBS for 10 min at 37 °C. Cells were then washed 3 times with PBS and blocked at least overnight at 4 °C with 1% BSA in PBS (blocking buffer). Cells were stained with monoclonal antibody (1H10G7), either neat culture supernatant or 12.8 µg/mL of purified IgG in blocking buffer for 1 h at 37 °C, followed by 2 washes with PBS. Cells were then co-stained with a 1:500 dilution (4 µg/mL) of Alexa Fluor 568 goat anti-mouse IgG (Invitrogen, catalog# A-11004) and 1.33 µg/mL fluorescein-labeled Vicia villosa lectin (Vector Laboratories, catalog# FL-1231) diluted in blocking buffer for 1 h at 37 °C. Stains were then removed and 0.09 mM Hoechst 33258 (AnaSpec, catalog# AS-83219) also diluted in blocking buffer was added for another 15 min at 37 °C, followed by 2 PBS washes and imaging on a Nikon Eclipse Ti2000 epifluorescence microscope run with NIS-Elements Advanced Research software (Nikon, USA) and equipped with an EXi blue fluorescent microscopy camera (QImaging, Canada). For enumerating parasites, tiled 2 × 2 images with 15% overlapping edges were taken using a 40 × dry objective (0.7 NA), and for finer details, Z stack images were acquired using a 60 × oil objective (1.4 NA). Lectin positive cells in focus were first counted, followed by DMC1.
For compound dose-response studies, the same assay was performed in 384-well plates and imaged using a 20 × dry objective (NA = 0.45). Tiled 4 × 4 to 6 × 6 images were taken. Images were analyzed using ImageJ software and the custom macro provided in Supplementary Method 2.

Structure (SMILES) | DNA Synthesis Assay: Mean % Inhibition of EdU-labeling (normalized to parasite numbers), Average (C. parvum) | DNA Synthesis Assay: Mean % Inhibition of EdU-labeling (normalized to parasite numbers), Replicate 1 (C. parvum) | DNA Synthesis Assay: Mean % Inhibition of EdU-labeling (normalized to parasite numbers), Replicate 2 (C. parvum) | Asexual to sexual differentiation: Mean % DMC1 inhibition (normalized to host nuclei), Average [1] | Asexual to sexual differentiation: Mean % DMC1 inhibition (normalized to host nuclei), Replicate 1a [1] | Asexual to sexual differentiation: Mean % DMC1 inhibition (normalized to host nuclei), Replicate 2a [1] | Asexual to sexual differentiation: Mean % DMC1 inhibition (normalized to host nuclei), Replicate 3a [1] | Asexual to sexual differentiation: Mean % DMC1 inhibition (normalized to host nuclei), Replicate 4a [1] | Asexual to sexual differentiation: Mean % DMC1 inhibition (normalized to host nuclei), Replicate 5a ([1]; single replicate 5) | DNA Synthesis Assay: Mean % Inhibition of EdU-labeling (normalized to parasite numbers), Replicate 3 (C. parvum) | DNA Synthesis Assay: Mean % Inhibition of EdU-labeling (normalized to parasite numbers), Replicate 4 (C. parvum; single replicate 4) | DNA Synthesis Assay: Mean % Inhibition of EdU-labeling (normalized to parasite numbers), Replicate 5 (C. parvum; single replicate 5) | DNA synthesis (C. parvum)
CC(=O)Oc1ccccc1C(=O)Nc1ncc([N+](=O)[O-])s1 [Nitazoxanide] | -9.16% | -33.81% | 15.50% | 81.79% | 79.14% | 81.57% | 59.72% | 95.07% | 93.41% | – | – | – | –
C[C@H]1CCC[C@H](C[C@H]2Cc3cc(O)cc(O)c3C(=O)O2)O1 [Cladosporin] | 93.15% | 89.75% | 94.02% | 94.16% | 91.92% | 96.40% | – | – | – | 89.08% | 93.50% | 99.40% | –
COc1ccc(Nc2nc(NCc3ccccc3Cl)c3ccccc3n2)cc1Cl [B-13] | -3.46% | 5.94% | -6.60% | 11.26% | 30.33% | -7.82% | – | – | – | -9.73% | – | – | no
COc1ccc(NC(=O)N2CCCCN3C(CN(C)C)C(c4ccc(C#Cc5ccccc5)cc4)C3C2)cc1 (stereo not drawn) [BRD7929] | 93.39% | 85.08% | 95.72% | 63.11% | 38.81% | 78.93% | 84.43% | 50.27% | – | 99.38% | – | – | –
CC(=NOCCN)c1cccc(C(C)(C)NC(=O)Nc2ccc(Cl)c(C(F)(F)F)c2)c1 [P257] | 97.76% | 97.49% | 98.03% | 70.52% | 67.08% | 73.96% | – | – | – | – | – | – | –
c1ccc(CNc2nc(NC3CCCC3)nc3ccccc23)cc1 [B-5] | -9.25% | -17.04% | 19.85% | 7.84% | 11.99% | -2.17% | 13.72% | – | – | -30.57% | – | – | no
Cc1cccc(-n2ncc3c(=O)[nH]c(-n4nc(C)cc4NC(=O)C4CC4)nc32)c1 [C-4] | 99.18% | 98.37% | 100.00% | 64.12% | 60.65% | 67.59% | – | – | – | – | – | – | –
CC(C)c1c(C(=O)Nc2ccccc2)c(-c2ccccc2)c(-c2ccc(F)cc2)n1CC[C@@H](O)C[C@@H](O)CC(=O)O [Atorvastatin] | -4.60% | -2.45% | -19.78% | 36.34% | 55.77% | 16.91% | – | – | – | 8.45% | – | – | –
